Target: human PCSK9 (Homo sapiens, UniProt Q8NBP7)
Test: PCSK9 ligand binding assay (TR-FRET): interference with binding of human PCSK9 to human LDLR
Conditions: for IC50: Human PCSK9 Alexa Fluor 647 / Human LDLR extracellular domain-Europium Kryptate; for Max % inhibition: efficacy (Amax), 100% = 1 uM unlabeled human PCSK9, 0% = DMSO
Outline: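 Read-out was TR-FRET ratio (665 nm over 615 nm, 330 nm excitation) between Alexa Fluor 647-human PCSK9 (16 nM added) and Europium Kryptate-human LDLR ectodomain (4 nM added). Compound and PCSK9 were mixed 30 min before LDLR, then incubated 2 h. Inhibition was normalised to DMSO and unlabelled-PCSK9 controls, giving IC50 and Amax.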

Sequence of human PCSK9 (Q8NBP7 153-692): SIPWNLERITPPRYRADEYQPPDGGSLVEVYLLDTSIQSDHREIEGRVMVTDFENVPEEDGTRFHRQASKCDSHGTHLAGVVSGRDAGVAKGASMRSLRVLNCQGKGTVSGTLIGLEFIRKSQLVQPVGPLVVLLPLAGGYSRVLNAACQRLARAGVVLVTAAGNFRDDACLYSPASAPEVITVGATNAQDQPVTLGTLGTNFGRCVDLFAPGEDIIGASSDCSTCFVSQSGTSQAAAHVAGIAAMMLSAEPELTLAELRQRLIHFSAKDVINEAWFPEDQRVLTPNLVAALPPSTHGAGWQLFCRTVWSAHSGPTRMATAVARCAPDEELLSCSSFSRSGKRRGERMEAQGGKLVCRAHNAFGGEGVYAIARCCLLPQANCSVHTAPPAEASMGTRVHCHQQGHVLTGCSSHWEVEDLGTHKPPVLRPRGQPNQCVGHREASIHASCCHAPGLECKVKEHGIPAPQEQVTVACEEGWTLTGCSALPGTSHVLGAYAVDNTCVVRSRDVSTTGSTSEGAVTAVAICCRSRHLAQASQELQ
Sequence of human PCSK9 (Q8NBP7 31-152 partner limits assumed): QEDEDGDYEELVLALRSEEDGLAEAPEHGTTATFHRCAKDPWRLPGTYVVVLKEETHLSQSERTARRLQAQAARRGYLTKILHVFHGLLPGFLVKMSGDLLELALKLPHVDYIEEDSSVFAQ

Row | SMILES | IC50 [nM] | Max % inhibition [%]
1 | C[C@H]1C(=O)N[C@@H](CO)C(=O)N(C)[C@@]2(Cc3ccc(Cl)cc3)CCCN(C2)C(=O)[C@H](Cc2c(F)cc(F)cc2F)CC(=O)N1Cc1ccc(Cl)cc1Oc1ccc(-c2cnc(CN(C)C)n2C)cc1 [Compound 37, (3R, 7S, 10S, 13R)-6-(4-chloro-2-(4-(2-((dimethylamino)methyl)-1-methyl-1H-imidazol-5-yl)phenoxy)benzyl)-13-(4-chlorobenzyl)-10-(hydroxymethyl)-7,12-dimethyl-3-(2,4,6-trifluorobenzyl)-1,6,9,12-tetraazabicyclo[11.3.1]heptadecane-2,5,8,11-tetraone] | 0.445 | 112.0
2 | COC[C@@H]1NC(=O)[C@H](C)N(Cc2ccc(Cl)cc2Oc2ccc(-c3cnc(CN(C)C)n3C)cc2)C(=O)C[C@@H](Cc2ccccc2)C(=O)N2CCC[C@@](Cc3ccc(Cl)cc3)(C2)N(C)C1=O [Compound 65, (3R, 7S, 10S, 13R)-3-benzyl-6-(4-chloro-2-(4-(2-((dimethylamino)methyl)-1-methyl-1H-imidazol-5-yl)phenoxy)benzyl)-13-(4-chlorobenzyl)-10-(methoxymethyl)-7,12-dimethyl-1,6,9,12-tetraazabicyclo[11.3.]heptadecane-2,5,8,11-tetraone] | 0.621 | 109.2
3 | COC[C@@H]1NC(=O)[C@H](C)N(Cc2ccc(Cl)cc2Oc2ccc(-c3cnc(CN(C)C)n3C)cc2)C(=O)C[C@@H](Cc2cccc(C)n2)C(=O)N2CCC[C@@](Cc3ccc(Cl)cc3)(C2)N(C)C1=O [Compound 38, (3R, 7S, 10S, 13R)-6-(4-chloro-2-(4-(2-((dimethylamino)methyl)-1-methyl-1H-imidazol-5-yl)phenoxy)benzyl)-13-(4-chlorobenzyl)-10-(methoxymethyl)-7,12-dimethyl-3-((6-methylpyridin-2-yl)methyl)-1,6,9,12-tetraazabicyclo[11.3.1]heptadecane-2,5,8,11-tetraone] | 0.715 | 106.4
4 | C[C@H]1C(=O)N[C@@H](CO)C(=O)N[C@@]2(Cc3ccc(Cl)cc3)CCCN(C2)C(=O)[C@H](Cc2ccccc2)CC(=O)N1Cc1ccc(Cl)cc1Oc1ccc(-c2cnc(CN(C)C)n2C)c(F)c1 [Compound 43, (3R, 7S, 10S, 13R)-3-benzyl-6-(4-chloro-2-(4-(2-((dimethylamino)methyl)-1-methyl-1H-imidazol-5-yl)-3-fluorophenoxy)benzyl)-13-(4-chlorobenzyl)-10-(hydroxymethyl)-7-methyl-1,6,9,12-tetraazabicyclo[11.3.1]heptadecane-2,5,8,11-tetraone] | 0.405 | 110.0
5 | Cc1c(CN(C)C)ncn1-c1ccc(Oc2cc(Cl)ccc2CN2C(=O)C[C@@H]([C@@H]3CCc4ccccc43)C(=O)N3CCC[C@@](Cc4ccc(Cl)cc4)(C3)NC(=O)[C@H](CO)NC(=O)[C@@H]2C)cc1 [Compound 7, (3S, 7S, 10S, 13R)-6-(4-chloro-2-(4-(4-((dimethylamino)methyl)-5-methyl-1H-imidazol-1-yl)phenoxy)benzyl)-13-(4-chlorobenzyl)-3-((S)-2,3-dihydro-1H-inden-1-yl)-10-(hydroxymethyl)-7-methyl-1,6,9,12-tetraazabicyclo[11.3.1]heptadecane-2,5,8,11-tetraone] | 0.401 | 107.3
6 | COC[C@@H]1NC(=O)[C@H](C)N(Cc2ccc(Cl)cc2Oc2ccc(-c3cnc(CN(C)C)n3C)cc2)C(=O)C[C@@H](Cc2ncco2)C(=O)N2CCC[C@@](Cc3ccc(Cl)cc3)(C2)NC1=O [Compound 35, (3R, 7S, 10S, 13R)-6-(4-chloro-2-(4-(2-((dimethylamino)methyl)-1-methyl-1H-imidazol-5-yl)phenoxy)benzyl)-13-(4-chlorobenzyl)-10-(methoxymethyl)-7-methyl-3-(oxazol-2-ylmethyl)-1,6,9,12-tetraazabicyclo[11.3.1]heptadecane-2,5,8,11-tetraone] | 0.914 | 105.0
7 | COC[C@@H]1NC(=O)[C@H](C)N(Cc2c(F)cc(Cl)cc2Oc2ccc(-c3cnc(CN(C)C)n3C)cc2)C(=O)C[C@@H](Cc2ccccn2)C(=O)N2CCC[C@@](Cc3ccc(Cl)cc3)(C2)N(C)C1=O [Compound 57, (3R,7S,10S,13R)-6-(4-Chloro-2-(4-(2-((dimethylamino)methyl)-1-methyl-1H-imidazol-5-yl)phenoxy)-6-fluorobenzyl)-13-(4-chlorobenzyl)-10-(methoxymethyl)-7,12-dimethyl-3-(pyridin-2-ylmethyl)-1,6,9,12-tetraazabicyclo[11.3.1]heptadecane-2,5,8,11-tetraone] | 0.763 | 115.6
8 | C[C@H]1C(=O)N[C@@H](COC(F)F)C(=O)N[C@@]2(Cc3ccc(Cl)cc3)CCCN(C2)C(=O)[C@H](Cc2ccccn2)CC(=O)N1Cc1ccc(Cl)cc1Oc1ccc(-c2cnc(CN3CCCC3)n2C)cc1 [Compound 30, (3R,7S,10S,13R)-6-(4-Chloro-2-(4-(1-methyl-2-(pyrrolidin-1-ylmethyl)-1H-imidazol-5-yl)phenoxy)benzyl)-13-(4-chlorobenzyl)-10-((difluoromethoxy)methyl)-7-methyl-3-(pyridin-2-ylmethyl)-1,6,9,12-tetraazabicyclo[11.3.1]heptadecane-2,5,8,11-tetraone] | 0.819 | 106.2
9 | COC[C@@H]1NC(=O)[C@H](C)N(Cc2c(F)cc(Cl)cc2Oc2ccc(-c3cnc(CN(C)C)n3C)nc2)C(=O)C[C@@H](CC(F)(F)F)C(=O)N2CCC[C@@](Cc3ccc(Cl)cc3)(C2)NC1=O [Compound 8] | 0.465 | 104.7

The next lines start with the values.

Row | IC50 [nM] | Max % inhibition [%] | SMILES
10 | 2.41 | 108.6 | C[C@H]1C(=O)N[C@@H](CO)C(=O)N[C@@]2(Cc3ccc(Cl)cc3)CCCN(C2)C(=O)[C@H](Cc2ccccc2)CC(=O)N1Cc1c(Cl)cc(Cl)cc1Oc1ccc(-c2cnc(CN(C)C)n2C)cc1 [Compound 98, (3R, 7S, 10S, 13R)-3-benzyl-13-(4-chlorobenzyl)-6-(2,4-dichloro-6-(4-(2-((dimethylamino)methyl)-1-methyl-1H-imidazol-5-yl)phenoxy)benzyl)-10-(hydroxymethyl)-7-methyl-1,6,9,12-tetraazabicyclo+11.3.111-tetraone]
11 | 1.28 | 113.6 | C[C@H]1C(=O)N[C@@H](CO)C(=O)N[C@@]2(Cc3ccc(Cl)cc3)CCCN(C2)C(=O)[C@H](CC(F)(F)F)CC(=O)N1Cc1ccc(Cl)cc1Oc1ccc(-c2cnc(CN(C)C(C)(C)C)n2C)cc1 [Compound 143, (3S, 7S, 10S, 13R)-6-(2-(4-(2-((tert-butyl(methyl)amino)methyl)-1-methyl-1H-imidazol-5-yl)phenoxy)-4-chlorobenzyl)-13-(4-chlorobenzyl)-10-(hydroxymethyl)-7-methyl-3-(2,2,2-trifluoroethyl)-1,6,9,12-tetraazabicyclo[11.3.1]heptadecane-2,5,8,11-tetraone]
12 | 0.95 | 101.4 | C[C@H]1C(=O)N[C@@H](CO)C(=O)N[C@@]2(Cc3ccc(Cl)cc3)CCCN(C2)C(=O)[C@H](CC2CCC2)CC(=O)N1Cc1c(F)cc(Cl)cc1Oc1ccc(-c2cnc(CN(C)C)n2C)cc1 [Compound 155, (3R, 7S, 10S, 13R)-6-(4-chloro-2-(4-(2-((dimethylamino)methyl)-1-methyl-1H-imidazol-5-yl)phenoxy)-6-fluorobenzyl)-13-(4-chlorobenzyl)-3-(cyclobutylmethyl)-10-(hydroxymethyl)-7-methyl-1,6,9,12-tetraazabicyclo[11.3.1]heptadecane-2,5,8,11-tetraone]
13 | 1.83 | 104.8 | C[C@H]1C(=O)N[C@@H](CO)C(=O)N(C)[C@H](Cc2ccc(Cl)cc2)CN(C)C(=O)[C@H]([C@H]2CCc3ccccc32)CC(=O)N1Cc1ccc(Cl)cc1Oc1ccc(-c2cnc(CN(C)C)n2C)cc1.Cl [Compound 91, (2S, 5S, 8R, 12S)-1-(4-chloro-2-(4-(2-((dimethylamino)methyl)-1-methyl-1H-imidazol-5-yl)phenoxy)benzyl)-8-(4-chlorobenzyl)-12-((R)-2,3-dihydro-1H-inden-1-yl)-5-(hydroxymethyl)-2,7,10-trimethyl-1,4,7,10-tetraazacyclotetradecane-3,6,11,14-tetraone]
14 | 19.7 | 104.9 | COC[C@@H]1NC(=O)[C@H](C)N(Cc2ccc(Cl)cc2Oc2ccc(-c3cnc(CN4CCCC4)n3C)cc2)C(=O)C[C@@H](Cc2ccccc2)C(=O)N(CCCN(C)C)C[C@@H](Cc2ccc(Cl)cc2)N(C)C1=O.Cl [Compound 116, (2S, 5S, 8R, 12R)-12-benzyl-1-(4-chloro-2-(4-(1-methyl-2-(pyrrolidin-1-ylmethyl)-1H-imidazol-5-yl)phenoxy)benzyl)-8-(4-chlorobenzyl)-10-(3-(dimethylamino)propyl)-5-(methoxymethyl)-2,7-dimethyl-1,4,7,10-tetraazacyclotetradecane-3,6,11,14-tetraone]
15 | 0.75 | 111.4 | COC[C@@H]1NC(=O)[C@H](C)N(Cc2ccc(Cl)cc2Oc2ccc(-c3cnc(CNC(C)(C)C)n3C)cc2)C(=O)C[C@@H](Cc2ccccc2)C(=O)N2CCC[C@@](Cc3ccc(Cl)cc3)(C2)NC1=O [Compound 149, (3R, 7S, 10S, 13R)-3-benzyl-6-(2-(4-(2-((tert-butylamino)methyl)-1-methyl-1H-imidazol-5-yl)phenoxy)-4-chlorobenzyl)-13-(4-chlorobenzyl)-10-(methoxymethyl)-7-methyl-1,6,9,12-tetraazabicyclo[11.3.1]heptadecane-2,5,8,11-tetraone]
16 | 1.37 | 107.7 | COC[C@@H]1NC(=O)[C@H](C)N(Cc2c(F)cc(Cl)cc2Oc2ccc(-c3cnc(CN(C)C)n3C)nc2)C(=O)C[C@@H](CC(F)(F)F)C(=O)N2CCC[C@@](Cc3ccc(Cl)cc3)(C2)N(C)C1=O [Compound 173]

Reference: patent publication US11813306B2, “Cyclic tetramer compounds as proprotein convertase subtilisin/kexin type 9 (PCSK9) inhibitors for the treatment of metabolic disorders” (NOVARTIS AG, priority 2018, dated 2023)
